Values joined by “and” are separate entries in the source; they are usually repeats but may differ in a detail not shown here. Equal values may be shown once.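 Interpolation was linear, between the two tested concentrations surrounding the appropriate level; five concentrations were tested over 48 hours in 96-well plates. At the GI50, growth is halved. TGI is the concentration that stops growth completely.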
Experiments:
Assay in all cases: NCI anticancer screen, dose series, 48 h
[1] = system: MOLT-4 leukemia
[2] = system: DU-145 prostate
[3] = system: CCRF-CEM leukemia
[4] = system: RXF 393 renal
[5] = system: UO-31 renal
[6] = system: EKVX NSCLC
[7] = system: OVCAR-5 ovarian
[8] = system: U251 CNS
[9] = system: HCC-2998 colon
[10] = system: NCI/ADR-RES ovarian
[11] = system: T-47D breast

C=C1C(=O)O[C@H]2C[C@@]3(COC(C)=O)C=COC=C(COC(=O)C(C)C)C3CC12 (stereo partly drawn)
TGI [1]: > 100 µM
TGI [2]: > 100 µM
TGI [3]: 63.8 µM
TGI [4]: > 100 µM
TGI [5]: > 100 µM
TGI [6]: > 100 µM
TGI [7]: > 100 µM
TGI [8]: > 100 µM
TGI [9]: > 100 µM
TGI [10]: > 100 µM

CO/N=C(/C)c1cccc(Nc2nc3ccccc3c3[nH]c4ccccc4c23)c1
TGI [1]: 27.2 µM
TGI [2]: 25 µM
TGI [5]: 22.1 µM
TGI [11]: 6.9 µM
TGI [7]: 22.3 µM
TGI [8]: 30.9 µM
TGI [10]: 25.1 µM

O=S(=O)(O)c1cc(N=Nc2c(O)ccc3ccccc23)ccc1/C=C/c1ccc(N=Nc2c(O)ccc3ccccc23)cc1S(=O)(=O)O
TGI [4]: > 100 µM
TGI [5]: > 100 µM
TGI [6]: > 100 µM
TGI [11]: > 100 µM
TGI [7]: > 100 µM
TGI [8]: > 100 µM
TGI [10]: > 100 µM

C=CCC1CC(n2cc(C)c(=O)[nH]c2=O)OC1CO[Si](C)(C)C(C)(C)C (stereo not drawn)
TGI [2]: 31.1 µM
TGI [3]: 29.9 µM
TGI [4]: 15.9 µM
TGI [5]: 24.9 µM
TGI [6]: 19.8 µM
TGI [11]: 26.8 µM
TGI [7]: 31.7 µM
TGI [8]: 29.6 µM
TGI [9]: 35.5 µM
TGI [10]: 31.5 µM

O=C1C(Br)=C(c2ccccc2)O/C1=C/C(=O)c1ccc(Br)cc1
TGI [1]: > 100 µM
TGI [2]: > 100 µM
TGI [3]: > 100 µM
TGI [4]: 46.9 µM
TGI [5]: > 100 µM
TGI [6]: > 100 µM
TGI [11]: > 100 µM
TGI [7]: > 100 µM
TGI [8]: > 100 µM
TGI [9]: > 100 µM

CC1=NC2=Nc3nc(C)cc[n+]3CN2C=C1
TGI [2]: > 100 µM
TGI [4]: > 100 µM
TGI [5]: > 100 µM
TGI [6]: 75.8 µM
TGI [11]: > 100 µM
TGI [7]: > 100 µM
TGI [8]: > 100 µM
TGI [9]: > 100 µM
TGI [10]: > 100 µM

Cc1ccc(NC=O)c(-c2c(N)[nH]c(=S)[nH]c2=O)c1
TGI [1]: > 100 µM
TGI [2]: > 100 µM
TGI [3]: > 100 µM
TGI [4]: > 100 µM
TGI [5]: > 100 µM
TGI [6]: > 100 µM
TGI [11]: > 100 µM
TGI [7]: > 100 µM
TGI [10]: > 100 µM

C/C(=N\N=C(\N)SB(F)F)c1ccc2ccccc2c1
TGI [2]: > 100 µM
TGI [3]: 56.7 µM
TGI [4]: > 100 µM
TGI [5]: > 100 µM
TGI [6]: > 100 µM
TGI [11]: > 100 µM
TGI [7]: > 100 µM
TGI [8]: > 100 µM
TGI [9]: > 100 µM
TGI [10]: > 100 µM

COc1cc2c(cc1OC)C(=O)N(c1ccc(O)cc1)C2=O
TGI [1]: > 100 µM
TGI [2]: > 100 µM
TGI [3]: > 100 µM
TGI [4]: > 100 µM
TGI [6]: > 100 µM
TGI [11]: > 100 µM
TGI [7]: > 100 µM
TGI [8]: > 100 µM
TGI [9]: > 100 µM
TGI [10]: > 100 µM

CC(=N\N)/C(C)=N/N=C(C)/C(C)=N/N
TGI [2]: > 100 µM
TGI [3]: > 100 µM
TGI [4]: > 100 µM
TGI [5]: > 100 µM
TGI [6]: > 100 µM
TGI [11]: > 100 µM
TGI [7]: > 100 µM
TGI [8]: > 100 µM
TGI [9]: > 100 µM
TGI [10]: > 100 µM

CN(C(=O)Cc1ccccc1)n1cnn(CC(=O)OC(C)(C)C)c1=S
TGI [1]: > 10 µM
TGI [2]: > 10 µM
TGI [3]: > 10 µM
TGI [5]: > 10 µM
TGI [6]: > 10 µM
TGI [11]: > 10 µM
TGI [7]: > 10 µM
TGI [8]: > 10 µM
TGI [9]: > 10 µM
TGI [10]: > 10 µM

CCOC(=O)c1[nH]c(Br)c(-c2ccc(OC)c(OC)c2)c1Br
TGI [1]: 8.59 µM
GI50 [2]: 0.0155 µM
TGI [2]: 4.65 µM and 18.3 µM
TGI [4]: 0.0424 µM
TGI [5]: 9.96 µM
GI50 [6]: 10.4 µM
TGI [6]: 43.3 µM
TGI [11]: 72.5 µM
GI50 [7]: 20.3 µM
TGI [7]: 63.3 µM
TGI [8]: 1.44 µM
TGI [10]: > 100 µM

COC(=O)c1ccc(/C=C2\Oc3ccccc3C2=O)cc1
TGI [1]: > 100 µM
TGI [2]: > 100 µM
TGI [3]: > 100 µM
TGI [4]: > 100 µM
TGI [5]: > 100 µM
TGI [6]: > 100 µM
TGI [11]: > 100 µM
TGI [8]: > 100 µM
TGI [9]: > 100 µM
TGI [10]: > 100 µM

O=C(/C=C/c1ccc(-c2ccccc2)cc1)NCc1ccc(C(=O)NCc2ccccc2)cc1
TGI [2]: > 100 µM
TGI [3]: > 100 µM
TGI [4]: 67.3 µM
TGI [5]: > 100 µM
TGI [6]: > 100 µM
TGI [11]: > 100 µM
TGI [7]: > 100 µM
TGI [8]: > 100 µM
TGI [9]: > 100 µM
TGI [10]: > 100 µM

c1cc2c(s1)-c1sccc1C21OCCO1
TGI [1]: > 100 µM
TGI [2]: > 100 µM
TGI [3]: > 100 µM
TGI [5]: > 100 µM
TGI [6]: > 100 µM
TGI [11]: 80.9 µM
TGI [7]: > 100 µM
TGI [8]: > 100 µM
TGI [9]: > 100 µM
TGI [10]: > 100 µM

Clc1ccc(C2=NN=C3C(c4ccccc4)=Nc4ccccc4N3C2)cc1
TGI [1]: > 23.2 µM
TGI [2]: > 41.9 µM
TGI [3]: 15.2 µM
TGI [4]: > 46.2 µM
TGI [5]: > 80 µM
TGI [6]: > 27.1 µM
TGI [7]: > 30.6 µM
TGI [8]: > 100 µM
TGI [9]: > 100 µM
TGI [10]: > 100 µM

O=C(O)C(O)C(O)C(=O)O (stereo not drawn)
TGI [1]: > 100 µM
TGI [2]: > 100 µM
TGI [3]: > 100 µM
TGI [4]: > 100 µM
TGI [5]: > 100 µM
TGI [6]: > 100 µM
TGI [11]: > 100 µM
TGI [7]: > 100 µM
TGI [8]: > 100 µM
TGI [10]: > 100 µM

O=C(/C=C/c1ccccc1)CSc1ncn[nH]1
TGI [1]: > 100 µM
TGI [2]: > 100 µM
TGI [3]: > 100 µM
TGI [4]: > 100 µM
TGI [5]: > 100 µM
TGI [6]: > 100 µM
TGI [7]: > 100 µM
TGI [8]: > 100 µM
TGI [9]: > 100 µM
TGI [10]: > 100 µM

CC(NC(=O)NC(C)(C)C)NC(=O)C(N)CC(=O)O (stereo not drawn)
TGI [1]: > 100 µM
TGI [2]: > 100 µM
TGI [3]: > 100 µM
TGI [4]: > 100 µM
TGI [5]: > 100 µM
TGI [6]: > 100 µM
TGI [11]: > 100 µM
TGI [7]: > 100 µM
TGI [8]: > 100 µM
TGI [10]: > 100 µM

O=C(NCCN1CCOCC1)c1cn2c(ccc3sc4ccccc4c(=O)c32)n1
TGI [1]: > 100 µM
TGI [2]: > 100 µM
TGI [4]: > 100 µM
TGI [5]: > 100 µM
TGI [6]: > 100 µM
TGI [7]: > 100 µM
TGI [8]: 21.6 µM
TGI [9]: 54.1 µM
TGI [10]: > 100 µM

Cc1nc(CC#N)n[nH]1
TGI [1]: > 100 µM
TGI [2]: > 100 µM
TGI [3]: > 100 µM
TGI [4]: > 100 µM
TGI [5]: > 100 µM
TGI [6]: > 100 µM
TGI [7]: > 100 µM
TGI [8]: > 100 µM
TGI [9]: > 100 µM
TGI [10]: > 100 µM

From PubChem BioAssay (NCI)
